Test results as given in ChEMBL document CHEMBL5104141, “Discovery and antiviral profile of new sulfamoylbenzamide derivatives as HBV capsid assembly modulators” (Bioorg Med Chem Lett, 2022).
In brackets after ≈: the same amount, converted by molar mass.

Columns and labels:
[1] = target: Core antigen (Hepatitis B virus) (UniProt Q03732); test: Modulation of capsid assembly in HBV infected in human HePAD38 cells assessed as inhibition of viral DNA replication measured after 96 hrs by qPCR analysis; assay type: cell-based; settings: filed as modulator
Chain of Core antigen (Hepatitis B virus) (Q03732 as listed by the source): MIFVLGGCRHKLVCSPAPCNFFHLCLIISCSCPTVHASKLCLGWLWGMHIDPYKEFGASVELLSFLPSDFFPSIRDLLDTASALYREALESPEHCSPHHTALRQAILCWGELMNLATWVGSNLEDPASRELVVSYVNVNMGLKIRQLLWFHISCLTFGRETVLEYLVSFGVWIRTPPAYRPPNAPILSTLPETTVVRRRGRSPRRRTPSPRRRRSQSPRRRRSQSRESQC

[2] = target: Core antigen (Hepatitis B virus) (UniProt Q03732); test: Modulation of capsid assembly in HBV infected in human HePAD38 cells assessed as fold shift in inhibition of viral DNA replication in presence of 40% normal human serum measured after 96 hrs by qPCR analysis; assay type: cell-based; settings: filed as modulator
[3] = Cytotoxicity against human HePAD38 cells up to 10 uM by CellTiter-Blue assay; assay type: toxicity, cell-based; settings: hepad38, 10 µM
HepG2 2.2.15 = test: Cytotoxicity against human HepG2.2.15 cells up to 10 uM by CellTiter-Blue assay; assay type: toxicity, cell-based; settings: hepg2 2.2.15, 10 µM
[4] = Ratio of EC50 for antiviral activity against HBV harboring core protein F23Y mutant to EC50 for antiviral activity against HBV harboring wild type core protein; assay type: functional, Hepatitis B virus
[5] = Ratio of EC50 for antiviral activity against HBV harboring core protein F110I mutant to EC50 for antiviral activity against HBV harboring wild type core protein; assay type: functional, Hepatitis B virus
[6] = Ratio of EC50 for antiviral activity against HBV harboring core protein I105T mutant to EC50 for antiviral activity against HBV harboring wild type core protein; assay type: functional, Hepatitis B virus
[7] = Ratio of EC50 for antiviral activity against HBV harboring core protein L37Q mutant to EC50 for antiviral activity against HBV harboring wild type core protein; assay type: functional, Hepatitis B virus
[8] = Ratio of EC50 for antiviral activity against HBV harboring core protein T33N mutant to EC50 for antiviral activity against HBV harboring wild type core protein; assay type: functional, Hepatitis B virus
[9] = Ratio of EC50 for antiviral activity against HBV harboring core protein T33P mutant to EC50 for antiviral activity against HBV harboring wild type core protein; assay type: functional, Hepatitis B virus
[10] = Ratio of EC50 for antiviral activity against HBV harboring core protein T128I mutant to EC50 for antiviral activity against HBV harboring wild type core protein; assay type: functional, Hepatitis B virus
[11] = Ratio of EC50 for antiviral activity against HBV harboring core protein V124G mutant to EC50 for antiviral activity against HBV harboring wild type core protein; assay type: functional, Hepatitis B virus
[12] = Ratio of EC50 for antiviral activity against HBV harboring core protein Y118F mutant to EC50 for antiviral activity against HBV harboring wild type core protein; assay type: functional, Hepatitis B virus
[13] = Kinetic solubility of the compound at pH 7.4; assay type: physicochemical; settings: buffer, read-out: Kinetic_solubility
Cytochrome P450 1A2 = target: T1, Cytochrome P450 1A2 (Homo sapiens, UniProt P05177); test: Inhibition of CYP1A2 (unknown origin); assay type: ADME
T1 sequence (P05177 whole entry): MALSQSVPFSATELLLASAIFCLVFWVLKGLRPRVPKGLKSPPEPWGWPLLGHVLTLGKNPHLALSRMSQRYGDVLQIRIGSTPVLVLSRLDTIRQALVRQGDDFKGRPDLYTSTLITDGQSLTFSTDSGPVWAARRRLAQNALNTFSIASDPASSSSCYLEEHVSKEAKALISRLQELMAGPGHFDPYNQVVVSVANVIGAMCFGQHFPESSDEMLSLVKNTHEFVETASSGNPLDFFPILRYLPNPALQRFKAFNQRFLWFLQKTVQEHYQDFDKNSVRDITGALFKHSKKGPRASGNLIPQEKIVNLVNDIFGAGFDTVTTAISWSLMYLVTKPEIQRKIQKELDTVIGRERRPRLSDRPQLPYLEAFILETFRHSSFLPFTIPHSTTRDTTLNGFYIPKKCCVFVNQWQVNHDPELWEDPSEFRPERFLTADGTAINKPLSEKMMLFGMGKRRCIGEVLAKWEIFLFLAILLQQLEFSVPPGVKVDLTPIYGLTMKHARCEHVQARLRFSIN

Cytochrome P450 2D6 = Cytochrome P450 2D6 (Homo sapiens, UniProt P10635); test: Inhibition of CYP2D6 (unknown origin); assay type: ADME
Chain of Cytochrome P450 2D6 (P10635 whole entry): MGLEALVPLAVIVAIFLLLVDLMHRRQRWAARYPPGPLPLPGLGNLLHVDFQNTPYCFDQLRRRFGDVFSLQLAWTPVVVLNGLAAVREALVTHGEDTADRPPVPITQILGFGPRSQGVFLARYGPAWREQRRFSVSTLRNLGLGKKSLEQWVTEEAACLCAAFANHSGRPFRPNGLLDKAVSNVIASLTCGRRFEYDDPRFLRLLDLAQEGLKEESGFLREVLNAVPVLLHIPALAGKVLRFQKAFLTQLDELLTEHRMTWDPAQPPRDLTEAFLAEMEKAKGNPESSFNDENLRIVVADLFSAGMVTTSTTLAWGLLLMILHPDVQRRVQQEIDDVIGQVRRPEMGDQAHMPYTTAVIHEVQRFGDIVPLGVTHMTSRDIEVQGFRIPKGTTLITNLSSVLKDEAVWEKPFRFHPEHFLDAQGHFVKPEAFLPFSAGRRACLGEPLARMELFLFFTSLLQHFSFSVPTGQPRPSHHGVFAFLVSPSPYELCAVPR

Cytochrome P450 3A4 = Cytochrome P450 3A4 (Homo sapiens, UniProt P08684); test: Inhibition of CYP3A4 (unknown origin); assay type: ADME
Chain of Cytochrome P450 3A4 (P08684 whole entry): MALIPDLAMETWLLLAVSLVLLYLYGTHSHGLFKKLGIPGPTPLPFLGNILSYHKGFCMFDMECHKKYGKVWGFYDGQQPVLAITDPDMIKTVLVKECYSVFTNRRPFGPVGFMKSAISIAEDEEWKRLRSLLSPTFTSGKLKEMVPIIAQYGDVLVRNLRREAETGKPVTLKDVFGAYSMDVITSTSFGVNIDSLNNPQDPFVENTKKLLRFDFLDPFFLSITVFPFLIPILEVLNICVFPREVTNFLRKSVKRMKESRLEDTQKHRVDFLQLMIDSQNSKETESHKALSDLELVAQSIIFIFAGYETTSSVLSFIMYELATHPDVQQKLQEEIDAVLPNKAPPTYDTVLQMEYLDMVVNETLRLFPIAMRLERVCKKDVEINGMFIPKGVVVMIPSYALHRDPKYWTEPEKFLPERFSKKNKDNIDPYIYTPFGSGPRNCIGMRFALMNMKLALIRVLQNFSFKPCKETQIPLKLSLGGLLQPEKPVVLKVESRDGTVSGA

[14] = Metabolic stability of the compound in human hepatocytes assessed as parent compound remaining measured after 4 hrs; assay type: ADME, cell-based, Hepatocyte; settings: read-out: Stability
[15] = Metabolic stability of the compound in mouse hepatocytes assessed as parent compound remaining measured after 4 hrs; assay type: ADME, cell-based, Hepatocyte; settings: read-out: Stability
[16] = Plasma clearance in C57BL/6 mouse at 2 mg/kg, iv; assay type: ADME, organism-based
[17] = Volume of distribution in C57BL/6 mouse at 2 mg/kg, iv; assay type: ADME, organism-based; settings: in vivo
[18] = Half life in C57BL/6 mouse at 2 mg/kg, iv; assay type: ADME, organism-based; settings: in vivo
[19] = Cmax in C57BL/6 mouse at 5 mg/kg, po; assay type: ADME, organism-based; design: dose 5 mg/kg, route po; settings: in vivo
[20] = AUC in C57BL/6 mouse at 5 mg/kg, po and 2 mg/kg, iv; assay type: ADME, organism-based; design: dose 5 mg/kg, route po; settings: in vivo
[21] = Oral bioavailability in C57BL/6 mouse at 5 mg/kg; assay type: ADME, organism-based; settings: in vivo
Hepatitis B virus [22] = test: Antiviral activity against HBV in HBV transgenic mouse assessed as inhibition of viral replication by measuring fold reduction of serum HBV DNA content at 25 mg/kg, po BID for 3 days relative to control; assay type: functional; settings: time 3 day
Hepatitis B virus [23] = test: Antiviral activity against HBV in HBV transgenic mouse assessed as inhibition of viral replication by measuring fold reduction of serum HBV DNA content at 75 mg/kg, po BID for 3 days relative to control; assay type: functional; settings: time 3 day
Hepatitis B virus [24] = test: Antiviral activity against HBV in HBV transgenic mouse assessed as inhibition of viral replication by measuring log reduction of serum HBV DNA content at 25 mg/kg, po BID for 3 days; assay type: functional; settings: time 3 day
Hepatitis B virus [25] = test: Antiviral activity against HBV in HBV transgenic mouse assessed as inhibition of viral replication by measuring log reduction of serum HBV DNA content at 75 mg/kg, po BID for 3 days; assay type: functional; settings: time 3 day
Hepatitis B virus [26] = test: Antiviral activity against HBV in HBV transgenic mouse assessed as inhibition of viral replication by measuring reduction of serum HBV DNA content at 25 to 75 mg/kg, po BID for 3 days; assay type: functional, organism-based; settings: dose 25-75 mg/kg, time 3.0 day, TDE = time-dependent effect
Hepatitis B virus [27] = test: Antiviral activity against HBV in HBV transgenic mouse assessed as inhibition of viral replication by measuring reduction of serum HBV DNA content administered orally BID for 3 days; assay type: functional, organism-based; settings: dose 25-75 mg/kg, route po, time 3.0 day, DDE = dose-dependent effect
[28] = Toxicity in HBV transgenic mouse assessed as liver damage at 25 to 75 mg/kg, po BID for 3 days; assay type: organism-based; settings: in vivo, 72 h, dose 25-75 mg/kg, time 3 day
[29] = Ratio of drug concentration in liver to blood in C57BL/6 mouse at 5 mg/kg, po measured after 4 hrs; assay type: ADME, organism-based
[30] = target: Voltage-gated inwardly rectifying potassium channel KCNH2 (Homo sapiens, UniProt Q12809); test: Inhibition of hERG; assay type: toxicity
Chain of Voltage-gated inwardly rectifying potassium channel KCNH2 (Q12809 whole entry): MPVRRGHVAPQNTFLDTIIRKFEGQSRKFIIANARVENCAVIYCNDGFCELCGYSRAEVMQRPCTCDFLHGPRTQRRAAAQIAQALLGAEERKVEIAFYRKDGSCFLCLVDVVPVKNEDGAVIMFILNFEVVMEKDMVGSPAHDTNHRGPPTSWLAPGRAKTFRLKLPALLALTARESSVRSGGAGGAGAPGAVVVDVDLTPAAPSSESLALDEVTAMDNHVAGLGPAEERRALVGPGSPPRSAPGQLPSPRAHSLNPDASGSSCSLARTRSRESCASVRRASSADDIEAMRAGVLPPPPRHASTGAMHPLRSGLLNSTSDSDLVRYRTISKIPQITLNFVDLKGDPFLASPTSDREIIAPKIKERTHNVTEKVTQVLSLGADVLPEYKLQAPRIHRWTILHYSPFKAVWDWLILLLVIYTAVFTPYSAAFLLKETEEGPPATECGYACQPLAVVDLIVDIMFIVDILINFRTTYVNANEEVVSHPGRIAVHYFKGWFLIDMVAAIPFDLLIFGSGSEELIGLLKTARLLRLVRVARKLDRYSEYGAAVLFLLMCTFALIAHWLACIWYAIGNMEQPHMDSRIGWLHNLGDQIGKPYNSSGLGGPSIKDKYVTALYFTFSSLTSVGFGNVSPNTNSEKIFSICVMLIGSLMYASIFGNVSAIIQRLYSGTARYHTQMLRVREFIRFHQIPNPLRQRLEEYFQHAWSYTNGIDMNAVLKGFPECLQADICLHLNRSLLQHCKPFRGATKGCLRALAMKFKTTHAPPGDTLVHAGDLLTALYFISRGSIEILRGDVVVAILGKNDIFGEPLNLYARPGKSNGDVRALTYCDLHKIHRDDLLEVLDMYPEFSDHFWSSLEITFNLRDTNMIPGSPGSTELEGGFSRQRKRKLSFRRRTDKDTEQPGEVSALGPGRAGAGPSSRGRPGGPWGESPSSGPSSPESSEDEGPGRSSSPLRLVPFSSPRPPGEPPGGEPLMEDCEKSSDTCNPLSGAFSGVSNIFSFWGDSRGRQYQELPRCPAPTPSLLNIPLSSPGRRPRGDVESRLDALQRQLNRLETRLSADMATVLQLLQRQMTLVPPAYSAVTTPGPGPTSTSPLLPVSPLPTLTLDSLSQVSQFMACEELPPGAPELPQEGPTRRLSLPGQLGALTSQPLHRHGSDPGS

[31] = Mutagenicity in Salmonella typhimurium upto 1250 ug/plate in presence of S9 fraction by Ames test; assay type: toxicity, subcellular; settings: salmonella enterica subsp. enterica serovar typhimurium, dose < 1250 µg
[32] = Mutagenicity in Salmonella typhimurium upto 1250 ug/plate in absence of S9 fraction by Ames test; assay type: toxicity; settings: salmonella enterica subsp. enterica serovar typhimurium, dose < 1250 µg
[33] = Mutagenicity in Escherichia coli upto 1250 ug/plate in presence of S9 fraction by Ames test; assay type: toxicity, subcellular; settings: dose < 1250 µg
[34] = Mutagenicity in Escherichia coli upto 1250 ug/plate in absence of S9 fraction by Ames test; assay type: toxicity; settings: dose < 1250 µg

## Cc1cc(C(=O)Nc2cc(F)c(F)c(F)c2)cc(S(N)(=O)=O)c1N
[1]
  EC90: 1.54 µM

## Nc1cc(F)c(C(=O)Nc2cc(F)c(F)c(F)c2)cc1S(N)(=O)=O
[1]
  EC90: 1.09 µM

## Nc1ccc(C(=O)Nc2ccc(F)c(C(F)(F)F)c2)cc1S(N)(=O)=O
[1]
  EC90: 3.65 µM

## CNc1ccc(C(=O)Nc2cc(F)c(F)c(F)c2)cc1S(N)(=O)=O
[1]
  EC90: 20.9 µM

## Cc1cc(N)c(S(N)(=O)=O)cc1C(=O)Nc1cc(F)c(F)c(F)c1
[1]
  EC90: 0.26 µM
[2]
  fold change (FC): 16.9
[3]
  Activity: Non-Toxic
HepG2 2.2.15
  Activity: Non-Toxic
[4]
  Ratio EC50: 3.1
[5]
  Ratio EC50: 3.1
[6]
  Ratio EC50: 3.1
[7]
  Ratio EC50: 3.1
[8]
  Ratio EC50: 3.1
[9]
  Ratio EC50: 3.1
[10]
  Ratio EC50: 3.1
[11]
  Ratio EC50: 3.1
[12]
  Ratio EC50: 3.1
[13]
  solubility kinetic: 29.2 µM (≈ 10.5 µg/mL)
Cytochrome P450 1A2
  IC50: 12.4 µM
Cytochrome P450 2D6
  IC50: > 15 µM
Cytochrome P450 3A4
  IC50: > 30 µM
[14]
  remaining at 4 h: 90%
[15]
  remaining at 4 h: 100%
[16]
  clearance: 8 mL/min/kg
[17]
  Vd: 2.3 L/kg
[18]
  half-life: 3.2 h
[19]
  Cmax: 3.6 µM
[20]
  AUC: 33 µM·h
[21]
  bioavailability: 114%
Hepatitis B virus [22]
  fold change (FC): 15.2
Hepatitis B virus [23]
  fold change (FC): 48.3
Hepatitis B virus [24]
  log(activity): 1.18
Hepatitis B virus [25]
  log(activity): 1.68
Hepatitis B virus [26]
  Activity: Tde
Hepatitis B virus [27]
  Activity: Dde
[28]
  Activity: Non-Toxic
[29]
  Kp at 4 h: 10
[30]
  IC50: > 30 µM
[31]
  Activity: Non-Toxic
[32]
  Activity: Non-Toxic
[33]
  Activity: Non-Toxic
[34]
  Activity: Non-Toxic

## Cc1cc(N)c(S(N)(=O)=O)cc1C(=O)Nc1ccc(F)c(Cl)c1
[1]
  EC90: 0.39 µM

## Cc1cc(N)c(S(N)(=O)=O)cc1C(=O)Nc1ccc(F)c(C#N)c1
[1]
  EC90: 1.21 µM

## N#Cc1cc(NC(=O)c2ccc(N)c(S(N)(=O)=O)c2)ccc1F
[1]
  EC90: 2.53 µM

## NS(=O)(=O)c1cc(C(=O)Nc2cc(F)c(F)c(F)c2)ccc1F
[1]
  EC90: 8.13 µM

## O=C(Nc1cc(F)c(F)c(F)c1)c1ccc(F)c(S(=O)(=O)N2CCC(O)CC2)c1
[1]
  EC90: 1.13 µM

## Cc1cc(NC(=O)c2cc(S(N)(=O)=O)c(N)cc2C)ccc1F
[1]
  EC90: 0.39 µM

## Cc1cc(NC(=O)c2ccc(N)c(S(N)(=O)=O)c2)ccc1F
[1]
  EC90: 0.7 µM

## Cc1cc(N)c(S(N)(=O)=O)cc1C(=O)Nc1ccc(F)c(C(F)(F)F)c1
[1]
  EC90: 2.63 µM

## Nc1ccc(C(=O)Nc2cc(F)c(F)c(F)c2)cc1S(N)(=O)=O
[1]
  EC90: 0.49 µM

## Nc1cc(Cl)c(C(=O)Nc2cc(F)c(F)c(F)c2)cc1S(N)(=O)=O
[1]
  EC90: 1.24 µM

## Cc1cc(N)c(S(N)(=O)=O)cc1C(=O)Nc1ccc(F)c(C(F)F)c1
[1]
  EC90: 0.66 µM

## Nc1ccc(C(=O)Nc2ccc(F)c(Cl)c2)cc1S(N)(=O)=O
[1]
  EC90: 0.36 µM

## Nc1ccc(C(=O)Nc2ccc(F)c(C(F)F)c2)cc1S(N)(=O)=O
[1]
  EC90: 0.48 µM

## Nc1cc(Br)c(C(=O)Nc2cc(F)c(F)c(F)c2)cc1S(N)(=O)=O
[1]
  EC90: 2.78 µM
